Reference: PMC6472409, “Dishevelled-3 conformation dynamics analyzed by FRET-based biosensors reveals a key role of casein kinase 1” (Nature Communications, 2019)
Values joined by “and” are separate entries in the source; they are usually repeats but may differ in a detail not shown here. Equal values may be shown once.

Experiments:
[1] = system: Wnt/β-catenin pathway; experiment: Dual Luciferase TopFlash/Renilla Reporter Assay; format: cell-based, human; details: for TopFlash relative to ctrl (= 1): Suppl. Fig. 2a; for TopFlash FlAsH III (CK1e-/-), relative to ctrl (= 1): Suppl. Fig. 4f, CK1e-/- cells
Procedure: Cells were transfected 24 h after seeding with 0.1 μg of Super8X TopFlash construct, 0.1 μg of Renilla luciferase construct, and 0.1 μg of corresponding plasmids per well for 6 h in a 24-well plate. As for the ECFP-DVL3 FIII wt stable cell lines, transfection was followed by 4 h induction of tetracycline (1 µg/ml) and 8 h treatment of CM:DMEM (1:1 ratio). For performing this assay, Promega Dual Luciferase assay kit (Promega, #E1910) was used according to the manufacturer’s instructions. Luminescence was measured by a Hidex Bioscan Plate Chameleon Luminometer. Results are depicted as the ratio of TopFlash and Renilla signal (TopFlash fold induction), which was normalized for each experiment to certain control column (normalized TopFlash fold induction). Data were analyzed by MS Excel 2007 and GraphPad Prism 6 and results were shown as the means ± S.D. (number of experiments indicated ad hoc).

[2] = system: DVL3 membrane recruitment by FZD6 in HEK293 cells; experiment: FZD6-dependent membrane recruitment of DVL3, immunofluorescence; format: cell-based, human; set-up: key to Non-recruited (DVL3 membrane recruitment): number of cells out of 100 positive cells scored; details: Fig 8c
Text: First, we analyzed the preferred subcellular localization of DVL3 (as introduced in Fig. 2c)[10],[14]. […] Next, we investigated if DVL3 conformation correlates with the capacity of DVL3 to be recruited by FZD6, a key Wnt receptor, to the plasma membrane. For this purpose, we co-expressed FZD6 and analyzed membrane recruitment of DVL3 in FZD6-positive cells by immunofluorescence. Individual cells were categorized as: not recruited (Fig. 8b, no DVL3 in the membrane), partially recruited (clear membrane as well as cytoplasmic localization), and fully recruited (predominantly plasma membrane localization, Fig. 8c, left). […] In the last readout we analyzed the capacity of DVL3 to activate downstream Wnt/β-catenin pathway monitored by TopFlash reporter assay (Fig. 8d). […] On the other hand, under conditions that favor the open conformation both activation as well as inhibition of the Wnt/β-catenin pathway was evident.
For immunofluorescence, cells were seeded (40,000 per well) on 24-well plates with gelatin-coated coverslips and transfected, as indicated, with 0.1 μg of each corresponding plasmid (0.3 μg of mCherry-FZD6) for 6 h. For western blotting and Dual Luciferase TopFlash/Renilla Reporter Assay, cells were seeded (60,000 per well) directly on 24-well plates with 0.1 μg of each corresponding plasmid (if not indicated otherwise) for 6 h. For coimmunoprecipitation, cells were seeded (4.4 × 10^6) on 10-cm dishes and transfected with 1 μg of each corresponding plasmid. The next day after seeding, cells were transfected using polyethyleneimine (PEI) in a stoichiometry of 6 μl of PEI per 1 μg of DNA for 6 h and were harvested 24 h after transfection. The following plasmids used in HEK293 cells have been described previously: FLAG-DVL3 wt[47], CK1ϵ wt[48], mCherry-FZD6 (ref. [37]), and dominant-negative CK1ϵ P3 (ref. [33]). The ECFP-DVL3 wt plasmid was made by Gateway Technology (via LR recombination according to the manufacturer’s instructions; Thermo Fisher Scientific, #11791020) from the donor plasmid pDONR221 DVL3 (DNASU, #FLH178665.01x) and the destination plasmid pdECFP (LMBP, #4548). The HA-DVL3 wt plasmid was made by Gateway Technology from the donor plasmid pDONR221 DVL3 (DNASU, #FLH178665.01x) and the destination plasmid pcDNA3.1 N-term HA (gift from Erich Nigg).
Cells were seeded on gelatin-coated coverslips in 24-well plates and were transfected the next day. Cells were fixed 24 h later in fresh 4% paraformaldehyde, permeabilized with 0.5% Triton X-100, blocked with PBS/BSA/Triton/Azide buffer (PBTA) [3% (wt/vol) BSA, 0.25% Triton, 0.01% NaN3] for 1 h, and incubated overnight with primary antibodies (in dilution 1:500) in PBTA at 4 °C. The next day, the coverslips were washed in PBS and incubated with secondary antibodies conjugated to Alexa Fluor 488 (Invitrogen A11001) or/and Alexa Fluor 594 (Invitrogen A11058) (all in dilution 1:1000), washed with PBS [in case of samples containing FLAG-DVL3 WT and derived variants stained with DAPI (1:5000)], and all coverslips were mounted on microscopic slides. Cells were then visualized on an Olympus IX51 fluorescent microscope using ×40 air or ×100 oil objectives and/or an Olympus Fluoview 500 confocal laser scanning microscope IX71 using ×100 oil objective. One hundred positive cells per experiment (n = 3) were analyzed and scored according to their phenotype into two/three categories (punctae/even); or non-recruited/partially/fully recruited for FZD6-dependent recruitment of DVL3. The antibodies used were as follows: anti-FLAG M2 (Sigma-Aldrich, #F1804), anti-DVL3 (Santa Cruz, #sc-8027), anti-CK1ɛ (Santa Cruz, #sc-6471), anti-RFP (Chromotek, #5h9) and anti-GFP (Fitzgerald, #20R-GR-011).

[3] = system: DVL3 subcellular localization in HEK293 cells; experiment: DVL3 subcellular localization (punctae/even), immunofluorescence; format: cell-based, human
[4] = system: Xenopus laevis embryos; experiment: Convergent extension (CE) / neural tube defects in Xenopus embryos (Wnt/PCP readout); format: in vivo; details: Dorsal injection, 100pg/embryo
Text: In the cell culture model we were unable to dissect the effects on the non-canonical Wnt/PCP pathway, and as such we turned into the Xenopus embryo model. Alterations in the Wnt/PCP pathway activity result in the convergent extension (CE) defects (Supplementary Fig. 7b, right). In order to avoid any artifacts, we tested the constitutively open and closed variants of xDvl3 based on point mutations or small deletions—namely open xDvl3 ΔC and xDvl3 (S267E/S310E) and closedxDvl3 (S267A/S310A). Phosphorylation sites in the PDZ domain are fully conserved between human and Xenopus (for alignment see Supplementary Fig. 5a) and hDVL3 S268/S311 corresponds to xDvl3 S267/S310.
The work with Xenopus laevis was carried out according to the German animal use and care law (Das Tierschutzgesetz) and approved by the local authorities and committees (animal care and housing approval: I/39/EE006, Veterinäramt Erlangen; animal experiments approval: 54-2532.2-8/08, German state administration Bavaria/Regierung von Mittelfranken). The generation and cultivation of Xenopus embryos was done in accordance with general protocols and staged after the normal table of Niewkoop and Faber (1994)[53].
RNA for microinjection was synthesized from plasmids pCS2 myc-xDvl3 (ref. [54]), pCS2 myc-xDvl3 ΔALL (lacking sequence corresponding to aa 338–350, 609–619, and 693–705 in xDvl3), pCS2 xDvl3 (S267A/S310A), pCS2 xDvl3 (S267E/S310E), pCS2 xDvl3 ΔC, and pCS2 xCK1ε[55], respectively, using the mMessage mMachine Kit (Ambion). Embryos were injected at the four-cell stage either into the two ventral blastomeres for testing the constructs' ability to induce a secondary body axis. Injection amounts of synthetic RNA were 500 pg for myc-xDvl3 wild type and the myc-xDvl3 ∆ALL variant, and 150 pg for xCK1ε RNA. For the analysis of morphogenetic defects, four-cell stage embryos were injected into the two dorsal blastomeres with 100 pg myc-xDvl3 RNA and the corresponding variant RNAs. After injection, the embryos were cultivated until they reached stage 26, fixed, and analyzed for axis duplication or morphogenetic defects, respectively.

[5] = sensor FlAsH III, replicate of grid row r5
[6] = sensor FlAsH III, replicate of grid row r6
[7] = sensor FlAsH III, replicate of grid row r7
[8] = Fig 2c, DVL3-FLAG, 10 μM inhibitor, replicate 1, 100 cells
[9] = Fig 8b, ECFP-DVL3 wt, HEK293 wt, inhibitor, exp1-exp3, 100 cells each, listed as INH

Molecule: Nc1nccc(-c2c(-c3ccc(F)cc3)ncn2C2CCCCC2)n1 [PF670462, reference compound]
- TopFlash/Renilla activation, in words ([1]; DVL3 wt + inhibitor, HEK293 cells, Fig 8d): no (or negligible) TopFlash/Renilla activation
- TopFlash relative to DVL3 wt (= 1) ([1]; Fig 8d, replicate of grid row r4): 0.13
- TopFlash relative to DVL3 wt (= 1) ([1]; Fig 8d, replicate of grid row r5): 0.1
- TopFlash relative to DVL3 wt (= 1) ([1]; Fig 8d, replicate of grid row r6): 0.2
- TopFlash relative to ctrl (= 1) ([1]; sensor FlAsH I, replicate of grid row r5): 0.09288
- TopFlash relative to ctrl (= 1) ([1]; sensor FlAsH I, replicate of grid row r6): 0.06555
- TopFlash relative to ctrl (= 1) ([1]; sensor FlAsH I, replicate of grid row r7): 0.095
- TopFlash relative to ctrl (= 1) ([1]; sensor FlAsH II, replicate of grid row r5): 0.04123
- TopFlash relative to ctrl (= 1) ([1]; sensor FlAsH II, replicate of grid row r6): 0.0401
- TopFlash relative to ctrl (= 1) ([1]; sensor FlAsH II, replicate of grid row r7): 0.09362
- TopFlash relative to ctrl (= 1) [1, 5]: 0.07646
- TopFlash relative to ctrl (= 1) [1, 6]: 0.1238
- TopFlash relative to ctrl (= 1) [1, 7]: 0.1277
- TopFlash relative to ctrl (= 1) ([1]; sensor FlAsH IV, replicate of grid row r5): 0.0466
- TopFlash relative to ctrl (= 1) ([1]; sensor FlAsH IV, replicate of grid row r6): 0.04626
- TopFlash relative to ctrl (= 1) ([1]; sensor FlAsH IV, replicate of grid row r7): 0.05626
- TopFlash FlAsH III (CK1e-/-), relative to ctrl (= 1) [1, 5]: 0.8229
- TopFlash FlAsH III (CK1e-/-), relative to ctrl (= 1) [1, 6]: 0.6189
- TopFlash FlAsH III (CK1e-/-), relative to ctrl (= 1) [1, 7]: 1.097
- Fully recruited (DVL3 membrane recruitment) ([2]; exp1): 1
- Non-recruited (DVL3 membrane recruitment) ([2]; exp1): 77
- Partially recruited (DVL3 membrane recruitment) ([2]; exp1): 22
- Fully recruited (DVL3 membrane recruitment) ([2]; exp2): 10
- Non-recruited (DVL3 membrane recruitment) ([2]; exp2): 66
- Partially recruited (DVL3 membrane recruitment) ([2]; exp2): 24
- Fully recruited (DVL3 membrane recruitment) ([2]; exp3): 15
- Non-recruited (DVL3 membrane recruitment) ([2]; exp3): 59
- Partially recruited (DVL3 membrane recruitment) ([2]; exp3): 26
- Even (%) [3, 8]: 1%
- Punctae (%) [3, 8]: 99%
- Punctae (%) ([3]; Fig 2c, DVL3-FLAG, 10 μM inhibitor, replicate 2, 100 cells): 98%
- Punctae (%) ([3]; Fig 2c, DVL3-FLAG, 10 μM inhibitor, replicate 3, 100 cells): 99%
- Even (%) [3, 9]: 5% and 11% and 8%
- Punctae (%) [3, 9]: 95% and 89% and 92%

B1: WT-Dvl3 (protein, UniProt Q92997 1-716, looked up)
Segment polarity protein …: MGETKIIYHLDGQETPYLVKLPLPAERVTLADFKGVLQRPSYKFFFKSMDDDFGVVKEEISDDNAKLPCFNGRVVSWLVSAEGSHPDPAPFCADNPSELPPPMERTGGIGDSRPPSFHPHAGGGSQENLDNDTETDSLVSAQRERPRRRDGPEHATRLNGTAKGERRREPGGYDSSSTLMSSELETTSFFDSDEDDSTSRFSSSTEQSSASRLMRRHKRRRRKQKVSRIERSSSFSSITDSTMSLNIITVTLNMEKYNFLGISIVGQSNERGDGGIYIGSIMKGGAVAADGRIEPGDMLLQVNEINFENMSNDDAVRVLREIVHKPGPITLTVAKCWDPSPRGCFTLPRSEPIRPIDPAAWVSHTAAMTGTFPAYGMSPSLSTITSTSSSITSSIPDTERLDDFHLSIHSDMAAIVKAMASPESGLEVRDRMWLKITIPNAFIGSDVVDWLYHNVEGFTDRREARKYASNLLKAGFIRHTVNKITFSEQCYYIFGDLCGNMANLSLHDHDGSSGASDQDTLAPLPHPGAAPWPMAFPYQYPPPPHPYNPHPGFPELGYSYGGGSASSQHSEGSRSSGSNRSGSDRRKEKDPKAGDSKSGGSGSESDHTTRSSLRGPRERAPSERSGPAASEHSHRSHHSLASSLRSHHTHPSYGPPGVPPLYGPPMLMMPPPPAAMGPPGAPPGRDLASVPPELTASRQSFRMAMGNPSEFFVDVM
- open neural tube (number of embryos) ([4]; 1. Injection): 3
- open neural tube (number of embryos) ([4]; 2. Injection): 1
- shortened AP axis (number of embryos) ([4]; 2. Injection): 0
- open neural tube (number of embryos) ([4]; 3. Injection): 0
- shortened AP axis (number of embryos) ([4]; 3. Injection): 0
- open NT (number of embryos) ([4]; Graph: sum of injections 1-3): 4
